Results on 76 compounds are retold here after paper PMC12040169 (PLOS Biology, 2025).

The data set can be described thus: in vitro. Particulars: human, hela cells, % viability.

Take `Cc1ccc(C(=O)N/C(=C\c2ccc3c(c2)OCO3)C(=O)NCC(=O)O)cc1` [CBK265669]: the viability at 28.5 h, 10 µM turned out to be 109%.

On to `O=C(CN1C(=O)c2ccccc2C1=O)Nc1sc2c(c1C(=O)NCc1ccco1)CCCC2` [CBK265670], for which the viability at 28.5 h, 10 µM is 87.9%.

On to `CC(CC(=O)O)CC(=O)Nc1ccccc1C(=O)O` (stereo not shown) [CBK265671], for which the viability at 28.5 h, 10 µM came out at 99.2%.

As for `O=C(CSc1nnc2scc(-c3ccccc3)n12)Nc1nsc(-c2ccccc2)n1` [CBK265672], the viability at 28.5 h, 10 µM was 103%.

As to `Cc1cc2ccccc2n2c(SCC(=O)Nc3nsc(-c4ccccc4)n3)nnc12` [CBK265673], the viability at 28.5 h, 10 µM came out at 116%.

Turning to `Cc1nc([N+](=O)[O-])c(N2CCN(Cc3ccccc3)CC2)n1Cc1ccccc1` [CBK265675], the viability at 28.5 h, 10 µM was 88.7%.

For `Cc1ccc(-n2ncc3c(NCCc4ccc(S(N)(=O)=O)cc4)ncnc32)c(C)c1` [CBK265676], the viability at 28.5 h, 10 µM came out at 92.4%.

Regarding `O=C(OCC#CCSc1nnc(-c2ccncc2)o1)c1sc2ccccc2c1Cl` [CBK265677], the viability at 28.5 h, 10 µM was found to be 94.6%.

Take `Cc1ccc2[nH]c(SCC(=O)Nc3cccc(NC(=O)C45CC6CC(CC(C6)C4)C5)c3)nc2c1` [CBK265679]: the viability at 28.5 h, 10 µM is 96.3%.

`O=C(CCc1ccccc1)Nc1cccc2nsnc12` [CBK265680]: the viability at 28.5 h, 10 µM was 85.3%.

For the compound `Cc1cc2ccccc2n2c(SCC(=O)NCCc3ccccc3)nnc12` [CBK265682], the viability at 28.5 h, 10 µM was 111%.

Consider `NS(=O)(=O)c1ccc(CCNC(=O)/C=C/c2ccc([N+](=O)[O-])cc2)cc1` [CBK265683], for which the viability at 28.5 h, 10 µM worked out at 110%.

On to `O=C(CSCc1nc(O)c2c3c(sc2n1)CCCC3)NC1CCCCC1` [CBK265684], for which the viability at 28.5 h, 10 µM was 83.5%.

`CCc1nnc(SCc2ccc(CSc3nnc(CC)n3N)cc2)n1N` [CBK265689]: the viability at 28.5 h, 10 µM amounted to 106%.

Turning to `COc1cc(/C=C2/NC(=O)N(c3cccc(Cl)c3)C2=O)ccc1OCC(=O)Nc1ccc(F)cc1` [CBK265691], the viability at 28.5 h, 10 µM was determined as 93%.

For `COC(=O)c1ccc(NC(=O)C2Cc3ccccc3CN2S(=O)(=O)c2cccs2)cc1` (stereo not shown) [CBK265693], the viability at 28.5 h, 10 µM was 92.7%.

As for `NS(=O)(=O)c1ccc(CCNC(=O)COc2ccc(Cl)cc2Cl)cc1` [CBK265694], the viability at 28.5 h, 10 µM came to 90.2%.

For the compound `COc1cc(/C=C/C(=O)O)ccc1OCC(=O)Nc1ccccc1` [CBK265695], the viability at 28.5 h, 10 µM amounted to 101%.

`CCN(C#N)c1nc(NC)nc(OC)n1` [CBK265697]: the viability at 28.5 h, 10 µM came to 98.1%.

In the case of `COc1ccc(NC(=O)C(C)Sc2nc(N)cc(O)n2)cc1` (stereo not shown) [CBK265699], the viability at 28.5 h, 10 µM came to 106%.

For `O=C(O)/C(=C\c1ccc(Cl)cc1)NC(=O)c1ccccc1I` [CBK265701], the viability at 28.5 h, 10 µM came to 90.1%.

Take `COc1ccccc1CNC(=O)c1cccc(C)c1[N+](=O)[O-]` [CBK265703]: the viability at 28.5 h, 10 µM is 87.8%.

On to `O=C(c1ccncc1)N(c1ccc2oc3c(c2c1)CCCC3)S(=O)(=O)c1cccc([N+](=O)[O-])c1` [CBK265705], for which the viability at 28.5 h, 10 µM worked out at 106%.

On to `Cc1nc(CSc2nc3sc4c(c3c(=O)n2-c2ccccc2)CCCCC4)cs1` [CBK265706], for which the viability at 28.5 h, 10 µM was determined as 110%.

For `CC(C)C(C(=O)Nc1ccc(S(=O)(=O)Nc2nccs2)cc1)N1C(=O)c2ccccc2C1=O` (stereo not shown) [CBK265707], the viability at 28.5 h, 10 µM was determined as 107%.

For `NS(=O)(=O)c1ccc(CCNC(=O)/C=C/c2ccccc2[N+](=O)[O-])cc1` [CBK265709], the viability at 28.5 h, 10 µM is 101%.

On to `Cc1cccc(-n2ncc3c(NCCCN4CCOCC4)ncnc32)c1` [CBK265710], for which the viability at 28.5 h, 10 µM stood at 91.2%.

In the case of `CS(=O)(=O)CCC(C(=O)O)N1C(=O)c2ccc(C(=O)O)cc2C1=O` (stereo not shown) [CBK265719], the viability at 28.5 h, 10 µM was found to be 94.5%.

Regarding `O=C(O)c1ccc(NC(=O)c2cc(S(=O)(=O)N3CCCCC3)cs2)cc1` [CBK265722], the viability at 28.5 h, 10 µM was 101%.

As for `CN(C)S(=O)(=O)c1ccc(Cl)c(C(=O)Nc2cccc(O)c2)c1` [CBK265723], the viability at 28.5 h, 10 µM is 113%.

Regarding `CN(CC(=O)O)C(=O)c1ccc(S(=O)(=O)N2CCCC2)cc1` [CBK265724], the viability at 28.5 h, 10 µM was determined as 91.8%.

With `CN(C)S(=O)(=O)c1ccc(Cl)c(C(=O)Nc2cccc(C(=O)O)c2)c1` [CBK265727], the viability at 28.5 h, 10 µM came to 90.9%.

As to `CN(c1ccc(C(=O)Nc2cccc(C(=O)O)c2)cc1)S(=O)(=O)c1ccccc1` [CBK265729], the viability at 28.5 h, 10 µM came out at 95.7%.

As to `CCOc1cc(CNC2C3CC4CC(C3)CC2C4)cc(Cl)c1OCC(N)=O` (stereo not shown) [CBK265734C], the viability at 28.5 h, 10 µM turned out to be 103%.

`Cc1cccc(NC(=O)CSc2ncnc3sc4c(c23)CCC(C)C4)c1` (stereo not shown) [CBK265738]: the viability at 28.5 h, 10 µM turned out to be 102%.

Consider `O=C(O)c1cccc(NC(=S)NC(=O)c2cccnc2)c1` [CBK265739], for which the viability at 28.5 h, 10 µM was 94.5%.

In the case of `CCCCc1ccc(NC(=S)NN2CCN(C)CC2)cc1` [CBK265741], the viability at 28.5 h, 10 µM is 97.1%.

Turning to `COC(=O)c1c(NC(=O)C(Cc2ccccc2)N2C(=O)c3ccccc3C2=O)sc2c1CCC2` (stereo not shown) [CBK265744], the viability at 28.5 h, 10 µM is 96.1%.

As for `CN1CCN(C(=O)CN(Cc2ccccc2)S(C)(=O)=O)CC1` [CBK265745], the viability at 28.5 h, 10 µM turned out to be 97.6%.

In the case of `CCN(CC)CCCNc1oc(-c2ccc(Cl)cc2)nc1C#N` [CBK265746], the viability at 28.5 h, 10 µM turned out to be 126%.

For the compound `O=C(O)CCCn1c(=O)c2cc3c(=O)n(CCCC(=O)O)c(=O)c3cc2c1=O` [CBK265748], the viability at 28.5 h, 10 µM worked out at 93.1%.

For `O=C(COc1ccc2ccccc2c1)Nc1ccc(CN2CCOCC2)cc1` [CBK265754], the viability at 28.5 h, 10 µM turned out to be 121%.

For the compound `Cc1nn(Cc2cccc(C(=O)NCc3ccccn3)c2)c(C)c1Cl` [CBK265755], the viability at 28.5 h, 10 µM came out at 97.7%.

Regarding `Cc1c(CN(C)C(=O)c2ccc(COc3ccc(Cl)cc3)cc2)cnn1C` [CBK265756], the viability at 28.5 h, 10 µM was determined as 98.9%.

With `Cc1ccccc1CN(CC(=O)NC1CC1)S(=O)(=O)c1ccc(Cl)cc1` [CBK265757], the viability at 28.5 h, 10 µM worked out at 98.3%.

On to `C/C(=C(/C(=O)N(N)c1nc2ccccc2s1)C(=O)C(F)(F)F)N1CCC(C(N)=O)CC1` [CBK265758], for which the viability at 28.5 h, 10 µM worked out at 87.7%.

For the compound `Cc1ccc(N(Cc2ccccc2OC(=O)c2cccnc2)C2=NS(=O)(=O)c3ccccc32)cc1` [CBK265760], the viability at 28.5 h, 10 µM came to 88.4%.

Regarding `O=c1c2ccccc2c(-c2ccc(Cl)cc2)nn1-c1cc(N2CCNCC2)ccc1[N+](=O)[O-]` [CBK265763], the viability at 28.5 h, 10 µM worked out at 98.7%.

Turning to `O=C(Nc1ccc(S(=O)(=O)Nc2ccc(Cl)cc2)cc1)c1ccc(Cn2cc(Br)cn2)o1` [CBK265764], the viability at 28.5 h, 10 µM was found to be 108%.

For `CN1CCN(C(=O)CNS(=O)(=O)c2ccccc2)CC1` [CBK265767], the viability at 28.5 h, 10 µM is 92.6%.

`COc1ccc(-c2nc(C#N)c(NCCN3CCOCC3)o2)cc1` [CBK265769]: the viability at 28.5 h, 10 µM amounted to 108%.

Take `O=C(O)CCC(=O)Nc1ccccc1NC(=O)c1ccc(C(F)(F)F)cc1` [CBK265770]: the viability at 28.5 h, 10 µM amounted to 102%.

As to `CN1CCN(CC(=O)Nc2ccc([N+](=O)[O-])cc2C(=O)c2ccccc2)CC1` [CBK265772], the viability at 28.5 h, 10 µM came out at 104%.

As for `NC(=O)C1(N2CCCCC2)CCN(CC(=O)Nc2ccc(Oc3ccccc3)cc2)CC1` [CBK265774], the viability at 28.5 h, 10 µM was found to be 107%.

For `NC(=O)c1c(NC(=O)c2ccc(COc3cc(Cl)ccc3Cl)o2)sc2c1CCCC2` [CBK265775], the viability at 28.5 h, 10 µM is 85.4%.

Consider `CCOc1cc(C2CC(=O)NC(SCC(=O)Nc3cccc(C(F)(F)F)c3)=C2C#N)ccc1O` (stereo not shown) [CBK265778], for which the viability at 28.5 h, 10 µM was determined as 104%.

With `Cn1nc(-c2ccc(N3CCCCC3)c(NC(=O)COc3ccccc3)c2)c2ccccc2c1=O` [CBK265780], the viability at 28.5 h, 10 µM came to 97.3%.

Regarding `CCn1c(SCC(=O)N2CCN(c3ccccc3)CC2)nnc1-c1ccc(N)cc1` [CBK265786], the viability at 28.5 h, 10 µM is 103%.

On to `O=C1CNC(=O)N1CC(O)Cn1c2ccc(Cl)cc2c2cc(Cl)ccc21` (stereo not shown) [CBK265792], for which the viability at 28.5 h, 10 µM came to 90.1%.

Take `N#CC1=C(SCC(=O)Nc2cccc3ccccc23)NC(=O)CC1c1ccco1` (stereo not shown) [CBK265793]: the viability at 28.5 h, 10 µM stood at 101%.

Take `CC(Sc1nc(-c2ccccc2)nc2ccccc12)C(=O)Nc1ccccc1C(F)(F)F` (stereo not shown) [CBK265795]: the viability at 28.5 h, 10 µM stood at 103%.

As for `O=S1(=O)CC(NCc2ccccc2)C(Nc2ccccc2)C1` (stereo not shown) [CBK265797], the viability at 28.5 h, 10 µM is 91.7%.

In the case of `CCOc1nc2c(c(C(F)(F)F)n1)CC(C)C/C2=C\c1ccccc1` (stereo not shown) [CBK265800], the viability at 28.5 h, 10 µM was 94.8%.

For the compound `NS(=O)(=O)c1ccc(CNC(=S)NC2CCCC2)cc1` [CBK265802], the viability at 28.5 h, 10 µM amounted to 97.8%.

As to `COc1ccc(CCNc2ncnc3c2cnn3-c2ccc(Cl)cc2)cc1OC` [CBK265804], the viability at 28.5 h, 10 µM turned out to be 105%.

Take `CS(=O)(=O)N(CC(=O)O)Cc1ccccc1` [CBK265805]: the viability at 28.5 h, 10 µM was determined as 90.1%.

For the compound `CC(C)(C)NC(=O)CNS(=O)(=O)c1ccccc1` [CBK265807], the viability at 28.5 h, 10 µM was found to be 85.5%.

On to `CCn1cc(C(=O)O)c(=O)c2cc(F)c(N3CCN(C(=S)Nc4cccc5ccccc45)CC3)cc21` [CBK265809], for which the viability at 28.5 h, 10 µM is 97.4%.

In the case of `O=C(O)c1cccc(-n2c(S)nnc2-c2ccc3ccccc3n2)c1` [CBK265810], the viability at 28.5 h, 10 µM was determined as 103%.

For `Cc1nn(Cc2cccc(C(=O)Nc3ccc(S(=O)(=O)N4CCCCC4)cc3)c2)c(C)c1Cl` [CBK265815], the viability at 28.5 h, 10 µM came out at 81.9%.

Turning to `Cc1ccccc1OCc1nnc(SCC(=O)NC2CCCCC2)n1C` [CBK265817], the viability at 28.5 h, 10 µM turned out to be 82.5%.

Regarding `Sc1nnc(-c2ccncc2)n1CCc1ccccc1` [CBK265819], the viability at 28.5 h, 10 µM is 108%.

Take `COc1ccc([N+](=O)[O-])cc1CSc1nnc(COc2ccccc2C)n1C` [CBK265820]: the viability at 28.5 h, 10 µM is 93%.

Regarding `CC(Sc1nnc2[nH]c3ccccc3n12)C(=O)O` (stereo not shown) [CBK265822], the viability at 28.5 h, 10 µM amounted to 99.7%.

For `CCn1cc(C(=O)O)c(=O)c2cc(F)c(N3CCN(C(=S)Nc4cc(OC)ccc4OC)CC3)cc21` [CBK265831], the viability at 28.5 h, 10 µM was found to be 85.7%.

For `Cc1ccc(S(=O)(=O)NC2c3cccc4cccc(c34)C2Sc2nnc(N)s2)cc1` (stereo not shown) [CBK265835], the viability at 28.5 h, 10 µM was determined as 107%.
